Measurements from patent publication US10947188B2, “Small molecule ferroptosis inducers” (THE TRUSTEES OF COLUMBIA UNIVERSITY IN THE CITY OF NEW YORK, priority 2016, dated 2021).
Like-named read-outs stand apart in the source and are kept apart here.

Columns and labels:
HT-1080 = assay: Modulatory profiling: Alamar Blue viability, lethal compound cotreated with death modulator (EC50, AUC); type: cell-based; set-up: AUC, modulator HT.3MA / AUC, modulator HT.ALLN / AUC HT.ATA / AUC HT.ActD / AUC HT.BHA / AUC HT.BHT / AUC HT.BocD / AUC HT.CHX / AUC HT.Co2+ / AUC HT.DPQ / AUC HT.EGTA / AUC HT.Lmim / AUC HT.NAD+ / AUC HT.Nec-1 / AUC HT.SP600125 / AUC HT.TLCK / AUC HT.U0126: unit not given beside the values; settings: for AUC HT.ATA: HT-1080, modulator ATA; for AUC HT.ActD: HT-1080, modulator ActD; for AUC HT.BHA: HT-1080, modulator BHA; for AUC HT.BHT: HT-1080, modulator BHT; for AUC HT.BocD: HT-1080, modulator BocD; for AUC HT.CHX: HT-1080, modulator CHX; for AUC HT.Co2+: HT-1080, modulator Co2+; for AUC HT.CspA: HT-1080, modulator CspA; for AUC HT.DPQ: HT-1080, modulator DPQ; for AUC HT.Gd3+: HT-1080, modulator Gd3+; for AUC HT.LNAME: HT-1080, modulator LNAME; for AUC HT.Lmim: HT-1080, modulator Lmim; for AUC HT.NAD+: HT-1080, modulator NAD+; for AUC HT.NMMA: HT-1080, modulator NMMA; for AUC HT.Nec-1: HT-1080, modulator Nec-1; for AUC HT.Pepstatin: HT-1080, modulator Pepstatin; for AUC HT.SP600125: HT-1080, modulator SP600125; for AUC HT.TLCK: HT-1080, modulator TLCK; for AUC HT.U0126: HT-1080, modulator U0126; for HT.atoc (AUC) / HT.bCarotene (AUC) / HT.deferox (AUC) / HT.digoxin (AUC) / HT.trolox (AUC) / HT.zVAD (AUC): HT-1080; for HT.atoc (AUC): modulator atoc; for HT.bCarotene (AUC): modulator bCarotene; for HT.deferox (AUC): modulator deferox; for HT.digoxin (AUC): modulator digoxin; for HT.trolox (AUC): modulator trolox; for HT.zVAD (AUC): modulator zVAD; for AUC, modulator HT.3MA / AUC, modulator HT.ALLN: HT-1080 cells, modulatory profile value (AUC); for AUC, modulator HT.3MA: lethal compound cotreated with modulator 3MA; for AUC, modulator HT.ALLN: lethal compound cotreated with modulator ALLN; for AUC HT.BHA: reference of the scale not given here; for AUC HT.EGTA: reference of the scale not given here
BJeLR = assay: as above; type: cell-based, human; set-up: AUC, modulator BJ.Gd3+ / AUC, modulator BJ.LNAME / AUC, modulator BJ.Lmin / AUC, modulator BJ.3MA / AUC, modulator BJ.ALLN / AUC, modulator BJ.Boc D / AUC, modulator BJ.CHX / AUC, modulator BJ.Co2+ / AUC, modulator BJ.Nec-1 / AUC, modulator BJ.Pepstatin / AUC, modulator BJ.TLCK / AUC, modulator BJ.atoc / AUC, modulator BJ.trolox / AUC, modulator BJ.zVAD: unit not given beside the values; settings: BJeLR cells, modulatory profile value (AUC); for AUC, modulator BJ.3MA: lethal compound cotreated with modulator 3MA; for AUC, modulator BJ.ALLN: lethal compound cotreated with modulator ALLN; for AUC, modulator BJ.Boc D: lethal compound cotreated with modulator Boc D; for AUC, modulator BJ.CHX: lethal compound cotreated with modulator CHX; for AUC, modulator BJ.Co2+: lethal compound cotreated with modulator Co2+; for AUC, modulator BJ.DPQ: lethal compound cotreated with modulator DPQ; for AUC, modulator BJ.Gd3+: lethal compound cotreated with modulator Gd3+; for AUC, modulator BJ.LNAME: lethal compound cotreated with modulator LNAME; for AUC, modulator BJ.Lmin/NAD+: lethal compound cotreated with modulator Lmin/NAD+; for AUC, modulator BJ.Lmin: lethal compound cotreated with modulator Lmin; for AUC, modulator BJ.NAD+: lethal compound cotreated with modulator NAD+; for AUC, modulator BJ.NMMA: lethal compound cotreated with modulator NMMA; for AUC, modulator BJ.Nec-1: lethal compound cotreated with modulator Nec-1; for AUC, modulator BJ.Pepstatin: lethal compound cotreated with modulator Pepstatin; for AUC, modulator BJ.TLCK: lethal compound cotreated with modulator TLCK; for AUC, modulator BJ.atoc: lethal compound cotreated with modulator atoc; for AUC, modulator BJ.trolox: lethal compound cotreated with modulator trolox; for AUC, modulator BJ.zVAD: lethal compound cotreated with modulator zVAD; for AUC, modulator BJ.3MA: reference of the scale not given here; for AUC, modulator BJ.ALLN: reference of the scale not given here; for AUC, modulator BJ.Boc D: reference of the scale not given here; for AUC, modulator BJ.CHX: reference of the scale not given here; for AUC, modulator BJ.Co2+: reference of the scale not given here; for AUC, modulator BJ.DPQ: reference of the scale not given here; for AUC, modulator BJ.Gd3+: reference of the scale not given here; for AUC, modulator BJ.LNAME: reference of the scale not given here; for AUC, modulator BJ.NAD+: reference of the scale not given here; for AUC, modulator BJ.NMMA: reference of the scale not given here; for AUC, modulator BJ.Nec-1: reference of the scale not given here; for AUC, modulator BJ.Pepstatin: reference of the scale not given here; for AUC, modulator BJ.TLCK: reference of the scale not given here

CC[C@@]1(O)C(=O)OCc2c1cc1n(c2=O)Cc2cc3ccccc3nc2-1 [Camptothecin]
AUC HT.ATA (HT-1080): −0.00483 | AUC HT.ActD (HT-1080): −0.1287 | AUC HT.BHA (HT-1080): 0.04861 | AUC HT.BHT (HT-1080): −0.08411 | AUC HT.BocD (HT-1080): 0.03455 | AUC HT.CHX (HT-1080): 0.0562 | AUC HT.Co2+ (HT-1080): 0.1416 | AUC HT.CspA (HT-1080): −0.1552 | AUC HT.DPQ (HT-1080): 0.008143 | AUC HT.EGTA (HT-1080; HT-1080, modulator EGTA): 0.01652 | AUC HT.Gd3+ (HT-1080): 0.02887 | AUC HT.LNAME (HT-1080): 0.01135 | AUC HT.Lmim (HT-1080): 0.0722 | AUC HT.NAD+ (HT-1080): 0.06078 | AUC HT.NMMA (HT-1080): 0.01978 | AUC HT.Nec-1 (HT-1080): 0.01102 | AUC HT.Pepstatin (HT-1080): 0.005918 | AUC HT.SP600125 (HT-1080): 0.02319 | AUC HT.TLCK (HT-1080): 0.04383 | AUC HT.U0126 (HT-1080): 0.0002717 | HT.atoc (AUC) (HT-1080): 0.004008 | HT.bCarotene (AUC) (HT-1080): 0.002837 | HT.deferox (AUC) (HT-1080): 0.1288 | HT.digoxin (AUC) (HT-1080): 0.1442 | HT.trolox (AUC) (HT-1080): 0.01719 | HT.zVAD (AUC) (HT-1080): 0.03249 | AUC, modulator HT.3MA (HT-1080): 0.0192 | AUC, modulator HT.ALLN (HT-1080): 0.03354 | AUC, modulator BJ.3MA (BJeLR): −0.02027 | AUC, modulator BJ.ALLN (BJeLR): 0.03368 | AUC, modulator BJ.Boc D (BJeLR): 0.07983 | AUC, modulator BJ.CHX (BJeLR): 0.1233 | AUC, modulator BJ.Co2+ (BJeLR): 0.02899 | AUC, modulator BJ.DPQ (BJeLR): −0.01119 | AUC, modulator BJ.Gd3+ (BJeLR): −0.007898 | AUC, modulator BJ.LNAME (BJeLR): 0.003206 | AUC, modulator BJ.Lmin/NAD+ (BJeLR): 0.1164 | AUC, modulator BJ.Lmin (BJeLR): 0.02947 | AUC, modulator BJ.NAD+ (BJeLR): 0.112 | AUC, modulator BJ.NMMA (BJeLR): −0.006852 | AUC, modulator BJ.Nec-1 (BJeLR): 0.02477 | AUC, modulator BJ.Pepstatin (BJeLR): 0.01408 | AUC, modulator BJ.TLCK (BJeLR): 0.02306 | AUC, modulator BJ.atoc (BJeLR): 0.01158 | AUC, modulator BJ.trolox (BJeLR): 0.04874 | AUC, modulator BJ.zVAD (BJeLR): 0.08241

COc1cccc2c1C(=O)c1c(O)c3c(c(O)c1C2=O)C[C@@](O)(C(C)=O)C[C@@H]3O[C@H]1C[C@H](N)[C@H](O)[C@H](C)O1 [Daunorubicin]
AUC HT.EGTA (HT-1080): 0.03262 | AUC HT.ATA (HT-1080): −0.00186 | AUC HT.ActD (HT-1080): 0.01442 | AUC HT.BHA (HT-1080): 0.0107 | AUC HT.BHT (HT-1080): −0.05609 | AUC HT.BocD (HT-1080): 0.0522 | AUC HT.CHX (HT-1080): 0.05854 | AUC HT.Co2+ (HT-1080): 0.1614 | AUC HT.CspA (HT-1080): −0.0792 | AUC HT.DPQ (HT-1080): 0.008882 | AUC HT.Gd3+ (HT-1080): 0.01529 | AUC HT.LNAME (HT-1080): −0.009852 | AUC HT.Lmim (HT-1080): 0.06112 | AUC HT.NAD+ (HT-1080): 0.1305 | AUC HT.NMMA (HT-1080): 0.0183 | AUC HT.Nec-1 (HT-1080): 0.02174 | AUC HT.Pepstatin (HT-1080): 0.005649 | AUC HT.SP600125 (HT-1080): −0.0113 | AUC HT.TLCK (HT-1080): 0.06429 | AUC HT.U0126 (HT-1080): −0.0159 | HT.atoc (AUC) (HT-1080): 0.009895 | HT.bCarotene (AUC) (HT-1080): 0.008265 | HT.deferox (AUC) (HT-1080): 0.1515 | HT.digoxin (AUC) (HT-1080): 0.1398 | HT.trolox (AUC) (HT-1080): −0.002722 | HT.zVAD (AUC) (HT-1080): 0.04455 | AUC, modulator HT.3MA (HT-1080): 0.02823 | AUC, modulator HT.ALLN (HT-1080): 0.008692 | AUC, modulator BJ.3MA (BJeLR): 0.03793 | AUC, modulator BJ.ALLN (BJeLR): 0.02846 | AUC, modulator BJ.Boc D (BJeLR): 0.03322 | AUC, modulator BJ.CHX (BJeLR): 0.1497 | AUC, modulator BJ.Co2+ (BJeLR): 0.2122 | AUC, modulator BJ.DPQ (BJeLR): −0.03527 | AUC, modulator BJ.Gd3+ (BJeLR): −0.005247 | AUC, modulator BJ.LNAME (BJeLR): 0.005526 | AUC, modulator BJ.Lmin/NAD+ (BJeLR): 0.1434 | AUC, modulator BJ.Lmin (BJeLR): 0.05475 | AUC, modulator BJ.NAD+ (BJeLR): 0.1226 | AUC, modulator BJ.NMMA (BJeLR): −0.01867 | AUC, modulator BJ.Nec-1 (BJeLR): −0.02055 | AUC, modulator BJ.Pepstatin (BJeLR): 0.02539 | AUC, modulator BJ.TLCK (BJeLR): 0.02856 | AUC, modulator BJ.atoc (BJeLR): 0.004145 | AUC, modulator BJ.trolox (BJeLR): −0.02026 | AUC, modulator BJ.zVAD (BJeLR): 0.05594

COc1cccc2c1C(=O)c1c(O)c3c(c(O)c1C2=O)C[C@@](O)(C(=O)CO)C[C@@H]3O[C@H]1C[C@H](N)[C@H](O)[C@H](C)O1 [Doxorubicin]
AUC HT.ATA (HT-1080): 0.02841 | AUC HT.ActD (HT-1080): 0.007993 | AUC HT.BHA (HT-1080): 0.02167 | AUC HT.BHT (HT-1080): −0.06815 | AUC HT.BocD (HT-1080): 0.05959 | AUC HT.CHX (HT-1080): 0.08993 | AUC HT.Co2+ (HT-1080): 0.2627 | AUC HT.CspA (HT-1080): −0.1098 | AUC HT.DPQ (HT-1080): 0.01107 | AUC HT.EGTA (HT-1080; HT-1080, modulator EGTA): 0.03492 | AUC HT.Gd3+ (HT-1080): 0.03741 | AUC HT.LNAME (HT-1080): 0.006685 | AUC HT.Lmim (HT-1080): 0.08822 | AUC HT.NAD+ (HT-1080): 0.1872 | AUC HT.NMMA (HT-1080): 0.02832 | AUC HT.Nec-1 (HT-1080): 0.007577 | AUC HT.Pepstatin (HT-1080): 0.008958 | AUC HT.SP600125 (HT-1080): −0.02148 | AUC HT.TLCK (HT-1080): 0.0633 | AUC HT.U0126 (HT-1080): −0.02036 | HT.atoc (AUC) (HT-1080): 0.00993 | HT.bCarotene (AUC) (HT-1080): 0.01512 | HT.deferox (AUC) (HT-1080): 0.2044 | HT.digoxin (AUC) (HT-1080): 0.1981 | HT.trolox (AUC) (HT-1080): −0.01413 | HT.zVAD (AUC) (HT-1080): 0.05138 | AUC, modulator HT.3MA (HT-1080): 0.03088 | AUC, modulator HT.ALLN (HT-1080): 0.03102 | AUC, modulator BJ.3MA (BJeLR): 0.03113 | AUC, modulator BJ.ALLN (BJeLR): 0.01555 | AUC, modulator BJ.Boc D (BJeLR): 0.04966 | AUC, modulator BJ.CHX (BJeLR): 0.1412 | AUC, modulator BJ.Co2+ (BJeLR): 0.1971 | AUC, modulator BJ.DPQ (BJeLR): 0.004462 | AUC, modulator BJ.Gd3+ (BJeLR): −0.01105 | AUC, modulator BJ.LNAME (BJeLR): 0.01382 | AUC, modulator BJ.Lmin/NAD+ (BJeLR): 0.1477 | AUC, modulator BJ.Lmin (BJeLR): 0.05475 | AUC, modulator BJ.NAD+ (BJeLR): 0.1339 | AUC, modulator BJ.NMMA (BJeLR): −0.007486 | AUC, modulator BJ.Nec-1 (BJeLR): −0.003677 | AUC, modulator BJ.Pepstatin (BJeLR): 0.01775 | AUC, modulator BJ.TLCK (BJeLR): 0.03307 | AUC, modulator BJ.atoc (BJeLR): 0.01689 | AUC, modulator BJ.trolox (BJeLR): 0.01164 | AUC, modulator BJ.zVAD (BJeLR): 0.05543
